According to patent publication US20130224855A1, “CULTURE MEDIUM FOR EUKARYOTIC CELLS” (priority 2010, published 2013):
Peptide text beside a SMILES is read from it.

Test system: IgG expressing CHO cell line (CHO-2: ATCC CRL 11397, producing IgG4)
Experiment: Growth and production curves of IgG expressing CHO cells in suspension culture in supplemented chemically defined medium
Format: cell-based, Chinese hamster
Details: for Cell growth (area under curve) after 14 days: dimensionless AUC
Protocol: The cell culture assay was carried out in commercially available IS CHO-CD medium (Irvine Scientific, Cat. No. 91119). […] Penicillin and streptomycin were added to prevent any bacterial growth during the growth assay. The media was supplemented with β-Alanine, γ-glutamyl cysteine, glycyl-glycine, L-homoserine or N-acetyl methionine, all purchased from Sigma Aldrich, Germany, in varying concentrations (1×10^-5 to 1×10^-1% (w/v), see Table 2). The supplemented medium was mixed with a vortex mixture, filtered using a 0.22 μm filter and subsequently used in a growth assay. An IgG expressing CHO cell line was used (CHO-2: ATCC CRL 11397, producing IgG4). The cell lines were grown in the adherent conditions for a few passages and once confluent, they were transferred to animal-free conditions in the supplemented media described in Example 5. […] Chemically defined media with and without added amino acid derivatives were tested. No fresh media was added during the growth assay. Cells were counted using the […] counter (Innovatis, Germany). The cell counts were used to calculate the area under the growth curve and represented as dimensionless area under curve (AUC) values as described in detail in Ling, C. X, Huang, J. and Zhang, H. (2003), International joint conferences on artificial intelligence, pp. 329-341. The supernatant samples were taken every alternate days for the IgG production measurements. IgG production was measured using sandwich ELISA method. […] The cells were visually inspected using a phase contrast microscope (Zeiss Axiovert 25, 400× magnification). […] Only single cells were observed and no aggregation of cells was seen. The cell shape was also positively affected. […] This was in contrast with the observation that a lot of cell aggregates were present in CHO cell cultures grown in chemically defined medium without amino acid derivatives.

[1] = added at 1 × 10^−1 % w/v in IS CHO-CD medium
[2] = added at 1 × 10^−1 % w/v in IS CHO-CD medium, ratio of cumulative IgG (mg/ml) and AUC at day 11
[3] = added at 1 × 10^−2 % w/v in IS CHO-CD medium
[4] = added at 1 × 10^−3 % w/v in IS CHO-CD medium
[5] = added at 1 × 10^−4 % w/v in IS CHO-CD medium
[6] = added at 1 × 10^−5 % w/v in IS CHO-CD medium

Row | SMILES | Cell growth (area under curve) after 14 days [1] | Specific IgG production after 11 days [2] | Specific IgG production after 11 days [3] | Cell growth (area under curve) after 14 days [3] | Specific IgG production after 11 days [4] | Cell growth (area under curve) after 14 days [4] | Specific IgG production after 11 days [5] | Cell growth (area under curve) after 14 days [5] | Specific IgG production after 11 days [6] | Cell growth (area under curve) after 14 days [6]
1 | NCC(=O)NCC(=O)O [Glycyl-glycine] (H-Gly-Gly-OH) | 50.6 | 86.6 | 95.8 | 48.2 | 104.2 | 49.6 | 113.5 | 47.7 | 102.0 | 51.0
2 | N[C@@H](CCO)C(=O)O [L-homoserine] | 45.7 | 122.0 | 72.0 | 59.1 | 96.8 | 39.4 | – | – | – | –
3 | CSCC[C@H](NC(C)=O)C(=O)O [N-acetyl methionine] | 48.6 | 91.9 | 90.4 | 47.9 | 94.4 | 46.0 | 90.3 | 38.6 | 81.3 | 41.2
4 | NCCC(=O)O [β-alanine] | 62.5 | 92.8 | 108.6 | 51.3 | 97.1 | 50.6 | – | – | – | –
5 | N[C@@H](CCC(=O)N[C@@H](CS)C(=O)O)C(=O)O [γ-glutamyl cysteine] | 46.1 | 78.2 | 105.9 | 42.8 | 68.33 | 58.0 | 77.2 | 47.6 | 72.5 | 58.9
